Patent US5565447A, “Indole derivatives” (Laboratorios Almirall S.A., priority 1992, dated 1996)
Like-named read-outs stand apart in the source and are kept apart here.

Experiments:
"5-HT1 -like" receptors = settings: agonistic action at "5-HT1 -like" receptors; background statement; cited from earlier work
Dog saphenous vein = Dog saphenous vein isometric recording (contraction, pD2); type: cell-based, beagle dog; settings: Canis lupus familiaris; isolated lateral saphenous vein rings, 37° C., in presence of 5-HT2, H1 and muscarinic antagonists; serotonin 1 μM as reference standard
Description: Isometric recordings were performed essentially as described by Humphrey et al (1988). Briefly, lateral saphenous vein ring preparations (3 mm. wide) removed from anaesthetized beagle dogs were suspended under 2g. resting tension, in 30 mL organ baths containing Krebs at 37° C. The experiments were carried out in the presence of 5-HT2, H1 and muscarinic antagonists and serotonin 1 μM was used as quantitative reference standard.
(Humphrey P. P. A.; Feniuk W.; Perren M. J.; Connor H. E.; Oxford A. W .; Coates I. H. and Butina D. (1988). GR 43175, a selective agonist for the 5-HT1-like receptor in dog isolated saphenous vein. Br. J. Pharmac. 94, 1123-1132).

5HT1A receptors = biological target: T1, 5HT1A receptors (Rattus norvegicus, UniProt P19327); test: Binding to 5HT1A receptors (3H-8-OH-DPAT displacement, rat hippocampus membranes)
T1 sequence (P19327 1-422): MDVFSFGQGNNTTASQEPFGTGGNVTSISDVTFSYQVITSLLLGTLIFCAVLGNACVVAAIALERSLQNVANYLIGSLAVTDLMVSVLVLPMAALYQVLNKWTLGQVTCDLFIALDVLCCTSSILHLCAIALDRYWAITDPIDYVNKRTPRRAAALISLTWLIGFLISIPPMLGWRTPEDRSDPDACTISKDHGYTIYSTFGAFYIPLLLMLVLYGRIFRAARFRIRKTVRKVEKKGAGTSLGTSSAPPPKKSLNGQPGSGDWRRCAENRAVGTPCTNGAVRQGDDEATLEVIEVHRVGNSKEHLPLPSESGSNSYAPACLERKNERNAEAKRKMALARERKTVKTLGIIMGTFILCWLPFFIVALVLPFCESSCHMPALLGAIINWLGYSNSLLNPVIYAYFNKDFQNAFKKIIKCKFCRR
Description: Binding to 5HT1A receptors
Assays were performed essentially as described by Gozlan et al (1983). Varying amounts of tested drugs were added to 1 mL final volume reaction mixtures that included 100 μg of rat hippocampus membrane protein, 0.5 nM ^3 H-8-OH-DPAT, 4 mM CaCl2, 0.1% ascorbic acid, 10 μM pargyline and 50 mM Tris HCl buffer, pH 7.4. After incubation at 25° C. for 30 minutes, samples were filtered under reduced pressure using glass fibre filters. The filters were washed with ice-cold buffer and dried. Non-specific binding was defined as that obtained in the presence of 10 μM 5HT. Radioactivity was quantified by scintillation counting and data was handled as described for the 5HT1D binding assay. (Gozlan H.; El Mestikawy S.; Pichat L.; Glowinski J. and Hamon M. (1983). Identification of presynaptic serotonin autoreceptors using a new ligand:^3 H-PAT. Nature 305, 140-142).

5HT1D receptors [1] = biological target: T2, 5HT1D receptors (Bos taurus, UniProt F1MGM3); test: Binding to 5HT1D receptors (125I-GTI displacement, calf caudate nucleus membranes)
T2 construct: calf caudate nucleus membrane protein; from tissue; host or cells: calf caudate nucleus membranes
T2 sequence (F1MGM3 1-403): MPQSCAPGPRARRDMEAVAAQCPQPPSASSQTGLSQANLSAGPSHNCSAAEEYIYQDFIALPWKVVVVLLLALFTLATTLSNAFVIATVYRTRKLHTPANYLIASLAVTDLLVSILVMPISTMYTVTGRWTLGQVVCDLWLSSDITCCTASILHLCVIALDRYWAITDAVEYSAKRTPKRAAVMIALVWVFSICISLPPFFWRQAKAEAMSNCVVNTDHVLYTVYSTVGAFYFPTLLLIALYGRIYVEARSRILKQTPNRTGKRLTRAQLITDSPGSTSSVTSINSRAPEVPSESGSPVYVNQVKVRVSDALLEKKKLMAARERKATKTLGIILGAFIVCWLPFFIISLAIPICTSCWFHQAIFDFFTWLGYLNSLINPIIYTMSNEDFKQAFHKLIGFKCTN
Description: (§1) Binding to 5HT1D Receptors
(§2) Assays were performed essentially as described by Bruinvels et al. Varying amounts of tested drugs were added to 0.25 mL final volume reaction that included 100 μg of calf caudate nucleus membrane protein, 100 pM (Serotonin-5-0-Carboxymethyl-Glycyl[^125 I]Tyrosinamide (^125 I-GTI), 4 mM CaCl2 and 50 mM Tris HCl buffer, pH 7.4. After incubation at 37° C. for 30 minutes, samples were filtered under reduced pressure using glass fibre filters. The filters were washed with ice-cold buffer and dried. Non-specific binding was defined as that obtained in the presence of 10 μM 5HT. Trapped radioactivity was quantified using a gamma counter. Displacement curves were constructed and the concentration displacing 50% of radioligand was calculated for each tested compound using non-linear regression. Data from at least three different assays run in duplicate was averaged. (Bruinvels A. T.; Lery H.; Palacios J. M. and Hoyer D. 5-HT1D binding sites in various species: similar pharmacological profile in dog, monkey, calf, guinea-pig and human brain membranes. Naunyn-Schmiedeberg's Arch. Pharmacol. (in press)).

5HT1D receptors [2] = test: as above; settings: ratio of binding IC50 values, 3H-8-OH-DPAT over 125I-GTI
Description: as §1, §2

5-HT1D receptor = settings: background statement; cited from earlier work
5-HT1A receptor [3] = settings: background statement; cited from earlier work
5-HT1A receptor [4] = settings: attributed to affinity for 5-HT1A receptor; cited from earlier work
[5] = 5HT1A, rat hippocampus membrane, 0.5 nM 3H-8-OH-DPAT, pH 7.4, 25° C., 30 minutes, read-out: Binding IC50 3H-8-OH-DPAT
[6] = 5HT1D, calf caudate nucleus membrane, 100 pM 125I-GTI, pH 7.4, 37° C., 30 minutes, read-out: Binding IC50 125I-GTI

SMILES | vasoconstrictor action in the carotid vascular bed ("5-HT1 -like" receptors) | EC50 (Dog saphenous vein) | IC50 (5HT1A receptors; [5]) | IC50 (5HT1D receptors [1]) | 5HT1A/5HT1D (5HT1D receptors [2]) | IC50 (5HT1D receptors [1]; [6]) | IC50 (5HT1A receptors) | other results
NCCc1c[nH]c2ccc(O)cc12 [serotonine, 5-Hydroxytryptamine] | vasoconstrictor action in the carotid vascular bed | – | – | – | – | – | – | –
CN1C[C@H](C(=O)N[C@]2(C)O[C@@]3(O)[C@@H]4CCCN4C(=O)[C@H](Cc4ccccc4)N3C2=O)C=C2c3cccc4[nH]cc(c34)C[C@H]21 [ergotamine] | vasoconstrictor action in the carotid vascular bed | – | – | – | – | – | – | –
CCOC(=O)N1CCN(S(=O)(=O)Cc2ccc3[nH]cc(CCN(C)C)c3c2)CC1 [Compound 11] | – | 339 nM | 850 ± 40 nM | 3.2 ± 0.3 nM | 265.6 | – | – | –
CN(C)CCc1c[nH]c2ccc(CS(=O)(=O)N3CCCC3)cc12.Cl [Compound 1, 1-[[3-(2-dimethylaminoethyl)-5-indolyl]methanesulphonyl]-pyrrolidine hydrochloride] | – | 871 nM | 825 ± 69 nM | – | 77.1 | 10.7 ± 0.4 nM | – | –
CNS(=O)(=O)Cc1ccc2[nH]cc(CCN(C)C)c2c1 [Sumatriptan, reference compound] | – | 871 nM | – | – | 44.2 | 10.4 ± 1 nM | 460 ± 67 nM | affinity for 5-HT1D receptor (5-HT1D receptor): high affinity for 5-HT1D receptor; affinity for 5-HT1A receptor (5-HT1A receptor [3]): very important affinity for 5-HT1A receptor; hypotension and other side effects (5-HT1A receptor [4]): causes hypotension by a central nervous system action and other side effects
CN(C)CCc1c[nH]c2ccc(CS(=O)(=O)N3CCCCC3)cc12.Cl [Compound 2, 1-[[3-(2-dimethylaminoethyl)-5-indolyl]methanesulphonyl]piperidine hydrochloride] | – | – | – | 6.9 ± 0.4 nM | 49.3 | – | 340 ± 0.5 nM | –
